Measured values taken from publication PMC12362244, “Fidelity, specialization, and evolution of Paramecium PolX DNA polymerases involved in programmed double-strand break DNA repair” (Nucleic Acids Research, 2025).

How the values were obtained:
PolXcΔNter = target: T1, PolXcΔNter (Paramecium tetraurelia, UniProt A0DCU7); experiment: gap-filling, FAM-primer urea-PAGE; format: biochemical; conditions: gap with nick in template strand; 1 nM enzyme, 1 mM dGTP, 5 mM MgCl2, pH 7.5, 27°C
T1 construct: gene GSPATT00015723001; lacks residues 1-266 (BRCT and linker); cleavable N-terminal 14-His tag; E. coli BL21 Star (DE3)
T1 sequence (A0DCU7 267-608): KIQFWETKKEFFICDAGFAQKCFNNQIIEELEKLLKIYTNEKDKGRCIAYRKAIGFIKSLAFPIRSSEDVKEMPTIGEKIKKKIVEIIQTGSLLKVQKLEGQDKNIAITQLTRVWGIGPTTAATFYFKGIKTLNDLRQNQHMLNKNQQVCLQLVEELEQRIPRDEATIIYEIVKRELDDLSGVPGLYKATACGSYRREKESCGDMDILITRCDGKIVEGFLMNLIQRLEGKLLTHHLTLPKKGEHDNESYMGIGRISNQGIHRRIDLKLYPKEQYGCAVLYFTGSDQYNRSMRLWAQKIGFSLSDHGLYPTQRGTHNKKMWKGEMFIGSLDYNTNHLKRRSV

HsPolλ = target: T2, HsPolλ (Homo sapiens, UniProt Q9UGP5); experiment: gap-filling, FAM-primer urea-PAGE; format: biochemical; conditions: continuous template strand; 50 nM enzyme, 1 mM dGTP, 5 mM MgCl2, pH 7.5, 37°C
T2 construct: gene POLL; wild type; cleavable N-terminal 14-His tag; E. coli
T2 sequence (Q9UGP5 1-575): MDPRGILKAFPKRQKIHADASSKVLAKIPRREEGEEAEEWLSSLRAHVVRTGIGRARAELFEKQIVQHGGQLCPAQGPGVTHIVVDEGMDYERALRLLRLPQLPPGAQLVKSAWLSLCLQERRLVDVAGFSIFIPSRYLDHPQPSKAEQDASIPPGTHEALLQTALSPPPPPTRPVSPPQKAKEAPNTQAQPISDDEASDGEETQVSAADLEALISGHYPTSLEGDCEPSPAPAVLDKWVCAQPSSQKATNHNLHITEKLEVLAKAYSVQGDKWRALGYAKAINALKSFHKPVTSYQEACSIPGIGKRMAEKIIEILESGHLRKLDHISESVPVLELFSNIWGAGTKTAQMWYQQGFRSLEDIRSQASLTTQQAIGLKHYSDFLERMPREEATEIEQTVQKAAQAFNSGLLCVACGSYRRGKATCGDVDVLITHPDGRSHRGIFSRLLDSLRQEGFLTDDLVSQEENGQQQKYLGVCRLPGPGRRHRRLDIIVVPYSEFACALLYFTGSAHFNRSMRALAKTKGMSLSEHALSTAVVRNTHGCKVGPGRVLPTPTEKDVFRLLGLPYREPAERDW

Nc1nc2c(ncn2[C@H]2C[C@H](O)[C@@H](COP(=O)(O)OP(=O)(O)OP(=O)(O)O)O2)c(=O)[nH]1 [dGTP]
gap-filling, FAM-primer urea-PAGE (PolXcΔNter): PolXaΔNter, PolXbΔNter, and PolXcΔNter displayed the highest apparent activity | gap-filling, FAM-primer urea-PAGE (HsPolλ): display gap-filling activity similar to hPolλ when using a continuous template strand
